From ChEMBL document CHEMBL1157881, “Optimization of arylindenopyrimidines as potent adenosine A(2A)/A(1) antagonists” (Bioorg Med Chem Lett, 2010)
The source made the active and inactive calls. No cut-off for these calls is given here.

What was measured:
[1] = target: T1, Adenosine receptor A1 (Homo sapiens, UniProt P30542); assay: Antagonistic activity at adenosine A1 receptor; type: functional
T1 sequence (P30542 whole entry): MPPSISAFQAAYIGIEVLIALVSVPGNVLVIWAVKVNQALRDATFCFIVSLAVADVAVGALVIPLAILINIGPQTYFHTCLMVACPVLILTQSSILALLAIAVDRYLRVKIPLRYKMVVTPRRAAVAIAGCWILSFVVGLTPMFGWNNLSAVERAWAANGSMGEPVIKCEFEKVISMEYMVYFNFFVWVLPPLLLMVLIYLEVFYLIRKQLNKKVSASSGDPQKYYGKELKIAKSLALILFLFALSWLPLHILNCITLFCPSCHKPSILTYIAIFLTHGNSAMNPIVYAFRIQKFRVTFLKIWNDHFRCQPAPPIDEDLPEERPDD

[2] = target: Adenosine receptor A2a (Homo sapiens, UniProt P29274); assay: Antagonistic activity at adenosine A2A receptor; type: functional
Chain of Adenosine receptor A2a (P29274 whole entry): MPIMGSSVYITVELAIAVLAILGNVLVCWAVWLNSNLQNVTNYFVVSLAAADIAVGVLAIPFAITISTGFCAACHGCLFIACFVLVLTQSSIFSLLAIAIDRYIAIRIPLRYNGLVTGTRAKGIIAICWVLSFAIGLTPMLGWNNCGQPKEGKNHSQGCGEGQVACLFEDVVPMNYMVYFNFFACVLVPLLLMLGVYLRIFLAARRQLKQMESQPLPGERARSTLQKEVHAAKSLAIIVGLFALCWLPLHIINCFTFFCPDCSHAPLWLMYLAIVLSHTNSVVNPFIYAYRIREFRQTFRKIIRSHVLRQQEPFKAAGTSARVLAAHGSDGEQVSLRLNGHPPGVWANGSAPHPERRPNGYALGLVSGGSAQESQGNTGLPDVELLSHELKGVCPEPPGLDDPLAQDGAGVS

[3] = tested on: Mus musculus; assay: Antagonist activity against haloperidol-induced catalepsy in mouse at 3 mg/kg, po; type: functional, organism-based; set-up: dose 3 mg/kg
[4] = tested on: Mus musculus; assay: Antagonist activity against haloperidol-induced catalepsy in po dosed mouse; type: functional
[5] = Cmax in rat brain; type: ADME, organism-based
[6] = tested on: Mus musculus; assay: Antagonist activity against haloperidol-induced catalepsy in mouse at 10 mg/kg, po; type: functional, organism-based; set-up: dose 10 mg/kg

SMILES | Ki [1] | Ki [2] | Activity [3] | ED50 [4] | Cmax [5] | Activity [6]
CN(C)CCOc1ccc2c(c1)-c1nc(N)nc(-c3ccc(F)cc3)c1C2=O | 37.4 nM | 37.3 nM | – | – | – | –
Nc1nc(-c2ccccc2)c2c(n1)-c1cc(NCCc3ccncc3)ccc1C2=O | 12.7 nM | 0.9 nM | – | – | – | –
CC(C)N1CCN(C(=O)c2ccc3c(c2)-c2nc(N)nc(-c4ccccc4)c2C3=O)CC1 | 84.1 nM | 20.7 nM | – | – | – | –
Nc1nc(-c2ccccc2)c2c(n1)-c1cc(NCCN3CCS(=O)(=O)CC3)ccc1C2=O | 46.7 nM | 3.1 nM | inactive | – | – | –
Nc1nc(-c2ccccc2)c2c(n1)-c1cc(N3CCOCC3)ccc1C2=O | 32.4 nM | 2.9 nM | – | – | – | –
CN1CCCN(c2ccc3c(c2)-c2nc(N)nc(-c4ccccc4)c2C3=O)CC1 | 137 nM | 10 nM | – | – | – | –
CCN(CC)CCNC(=O)c1ccc2c(c1)-c1nc(N)nc(-c3ccccc3)c1C2=O | 45.2 nM | 13.5 nM | – | – | – | –
CC(C)N(CCOc1ccc2c(c1)-c1nc(N)nc(-c3ccc(F)cc3)c1C2=O)C(C)C | 468 nM | 76.6 nM | – | – | – | –
CCN(CC)CCN(C)C(=O)c1ccc2c(c1)-c1nc(N)nc(-c3ccccc3)c1C2=O | 94.7 nM | 7.8 nM | – | < 1 mg/kg | – | –
CCN(CC)CCOc1ccc2c(c1)-c1nc(N)nc(-c3ccccc3)c1C2=O | 103 nM | 7.9 nM | – | < 1 mg/kg | – | –
CCN1CCN(c2ccc3c(c2)-c2nc(N)nc(-c4ccccc4)c2C3=O)CC1 | 256 nM | 11.4 nM | – | < 1 mg/kg | – | –
CCN1CCN(C(=O)c2ccc3c(c2)-c2nc(N)nc(-c4ccc(F)cc4)c2C3=O)CC1 | 191 nM | 32.1 nM | – | – | – | –
Nc1nc(-c2ccccc2)c2c(n1)-c1cc(OCCN3CCCC3)ccc1C2=O | 159 nM | 19.3 nM | – | < 1 mg/kg | – | –
Nc1nc(-c2ccccc2)c2c(n1)-c1cc(C(=O)NCCN3CCOCC3)ccc1C2=O | 215 nM | 28.4 nM | – | – | – | –
CN(C)CCOc1ccc2c(c1)-c1nc(N)nc(-c3ccccc3)c1C2=O | 33.3 nM | 17.3 nM | – | < 3 mg/kg | – | –
CCN1CCN(C(=O)c2ccc3c(c2)-c2nc(N)nc(-c4ccccc4)c2C3=O)CC1 | 67.4 nM | 14.9 nM | – | < 1 mg/kg | – | –
Nc1nc(-c2ccc(F)cc2)c2c(n1)-c1cc(OCCN3CCOCC3)ccc1C2=O | 203 nM | 18.1 nM | – | < 1 mg/kg | – | –
CN1CCN(c2ccc3c(c2)-c2nc(N)nc(-c4ccccc4)c2C3=O)CC1 | 35.6 nM | 2.7 nM | – | < 1 mg/kg | – | –
CC(C)N(CCOc1ccc2c(c1)-c1nc(N)nc(-c3ccccc3)c1C2=O)C(C)C | 187 nM | 13.7 nM | – | < 1 mg/kg | – | –

SMILES | Ki [1] | Ki [2] | Activity [3] | ED50 [4] | Cmax [5] | Activity [6]
Nc1nc(-c2ccccc2)c2c(n1)-c1cc(OCCN3CCCCC3)ccc1C2=O | 194 nM | 35.3 nM | – | – | – | –
CN1CCN(C(=O)c2ccc3c(c2)-c2nc(N)nc(-c4ccccc4)c2C3=O)CC1 | – | – | – | 0.4 mg/kg | 0.6 µM | –
Nc1nc(-c2ccccc2)c2c(n1)-c1cc(NCCN3CCOCC3)ccc1C2=O | 32.7 nM | 4.4 nM | – | < 1 mg/kg | – | –
Nc1nc(-c2ccc(F)cc2)c2c(n1)-c1cc(OCCN3CCCC3)ccc1C2=O | 600 nM | 117 nM | – | 0.8 mg/kg | – | –
Nc1nc(-c2ccccc2)c2c(n1)-c1cc(C(=O)N3CCNCC3)ccc1C2=O | 12.3 nM | 32.5 nM | – | – | – | –
Nc1nc(-c2ccccc2)c2c(n1)-c1cc(NCCc3ccccn3)ccc1C2=O | 15.4 nM | 0.9 nM | – | – | – | –
CCN1CCC(Nc2ccc3c(c2)-c2nc(N)nc(-c4ccccc4)c2C3=O)CC1 | 142 nM | 12.5 nM | inactive | – | – | –
Nc1nc(-c2ccc(F)cc2)c2c(n1)-c1cc(OCCN3C4CCC3CC4)ccc1C2=O | 337 nM | 35.1 nM | – | – | – | inactive
CN(C)CCN(C)c1ccc2c(c1)-c1nc(N)nc(-c3ccccc3)c1C2=O | 57.3 nM | 4.7 nM | – | – | – | –
CN1CCC(N(C)C(=O)c2ccc3c(c2)-c2nc(N)nc(-c4ccccc4)c2C3=O)CC1 | 258 nM | 18.6 nM | – | < 1 mg/kg | – | –
Nc1nc(-c2ccccc2)c2c(n1)-c1cc(N3CCN(CC4CC4)CC3)ccc1C2=O | 253 nM | 23.2 nM | – | – | – | –
Nc1nc(-c2ccccc2)c2c(n1)-c1cc(CN3CCCC3)ccc1C2=O | – | – | – | – | 3.6 µM | –
CCN1CCC(N(C)c2ccc3c(c2)-c2nc(N)nc(-c4ccccc4)c2C3=O)CC1 | 16.4 nM | 4.9 nM | – | – | – | –
CC(C)N1CCC(NC(=O)c2ccc3c(c2)-c2nc(N)nc(-c4ccccc4)c2C3=O)CC1 | 119 nM | 16.8 nM | – | 0.4 mg/kg | – | –
CN1CCN(C(=O)c2ccc3c(c2)-c2nc(N)nc(-c4ccc(F)cc4)c2C3=O)CC1 | 101 nM | 11.1 nM | – | < 1 mg/kg | – | –
CCN(CC)CCOc1ccc2c(c1)-c1nc(N)nc(-c3ccc(F)cc3)c1C2=O | 414 nM | 50.6 nM | – | – | – | –
Nc1nc(-c2ccccc2)c2c(n1)-c1cc(OCCN3CCOCC3)ccc1C2=O | 48.2 nM | – | – | < 1 mg/kg | 4.1 µM | –
CN(C)CCN(C)C(=O)c1ccc2c(c1)-c1nc(N)nc(-c3ccccc3)c1C2=O | 208 nM | 12.4 nM | – | < 1 mg/kg | – | –
